Measured values published in patent US20050136108A1, “Stepwise delivery of topiramate over prolonged period of time” (priority 2003, published 2005).
≈ marks a conversion by molar mass, not a printed value.

Experiments:
[1] = Aqueous solubility of topiramate; format: physicochemical; conditions: water, 37 °C, thermodynamic from solid, range stated without source
Method: Aqueous solubility is determined by adding the therapeutic agent to stirred or agitated water maintained in a constant temperature bath at a temperature of 37 degrees centigrade until no more agent dissolves. The resulting solution saturated with active agent is then filtered, typically under pressure through a 0.8-micron Millipore filter, and the concentration in solution is measured by any appropriate analytical method including gravimetric, ultraviolet spectrophometry, chromatography, and the like.

[2] = Intrinsic dissolution rate in water; format: physicochemical; conditions: water at 37° C.
Excerpt: Intrinsic dissolution is a method that utilizes a compressed disc of known area (a constant surface), effectively eliminating surface area and surface electrical charges as dissolution variables. The dissolution rate obtained by this method is termed the intrinsic dissolution rate and is characteristic of each solid compound in a given solvent under the fixed experimental conditions. The value is generally expressed as mg dissolved per minute per centimeters squared and is useful in predicting probable absorption problems due to dissolution rate. […] See USP General Chapter <1087> for more information.

[3] = cited from earlier work
[4] = in vivo; cited from earlier work

CC1(C)O[C@@H]2[C@@H](CO[C@@]3(COS(N)(=O)=O)OC(C)(C)O[C@@H]23)O1 [Topiramate, topiramate]
solubility [1]: 9.8 to 13 mg/mL (≈ 28.9 to 38.3 mM)
dissolution rate in water [2]: below 0.6 mg/min/cm2
solubility in alkaline solutions containing sodium hydroxide or sodium phosphate ([3]; alkaline solutions): soluble
solubility in acetone, dimethylsulfoxide and ethanol ([3]; organic solvents): soluble
solubility of topiramate in water ([3]; water): about 9.8 mg/ml
excretion [4]: excreted largely through the urine
metabolism [4]: not extensively metabolized
pharmacokinetics (dose dependence of blood plasma concentration) [4]: linear
